Data: PubChem BioAssay AID2060492 (Molecular Pharmacology Branch, DTP, NCI, 2025)
Values joined by “and” are separate entries in the source; they are usually repeats but may differ in a detail not shown here. Equal values may be shown once.

Tested on: 695427-040-R-J1-PDC complex spheroids, viability percent T/C
Assay: Anticancer human tumor 695427-040-R-J1-PDC patient-derived colon adenocarcinoma cell line growth inhibition [GQUAD]
Details: for viability, T/C: stronger effect = lower value
Description: DNA G-quadruplex Stabilizer Agents in Combinations in Complex Spheroids
A high-throughput screen of multi-cell type tumor spheroids was designed to identify active combinations of DNA G-quadruplex stabilizer agents and targeted small molecules. Complex spheroids include a stromal component modeled by human endothelial cells (HUVEC) and fibroblasts modeled by human mesenchymal stem cells (MSCs). The concentration ranges selected for each drug and investigational agent were based upon clinically achievable concentrations if the clinical Cmax of the agent was known.
Compounds. The drugs and investigational agents: pidnarulex (CX-5461; NSC782164), APTO-253 (NSC789042), BRACO-19 (NSC847499), peposertib (NSC802822), ceralasertib (NSC780249), elimusertib (NSC800525), camonsertib (NSC841442), AZD-1390 (NSC803789), olaparib (NSC753686), talazoparib (NSC767125), ART-558 (NSC835418), sotorasib (NSC818433), MRTX-1133 (NSC836407), SN-38 (NSC673596), topotecan (NSC609699), etoposide (NSC141540), doxorubicin (NSC123127), gemcitabine (NSC613327), 5-fluorouracil (NSC19893), paclitaxel (NSC125973), vemurafenib (NSC761431), panobinostat (NSC761190), R-306465 (JNJ-16241199; NSC773264), adavosertib (NSC754352), TP-3654 (NSC805149), carboplatin (NSC241240), KSQ-4279 (NSC840948), and staurosporine (NSC755774) were obtained from the National Cancer Institute (NCI) Developmental Therapeutics Program Chemical Repository (34). The FDA-approved anticancer drug set is available from the NCI Developmental Therapeutics Program. […] The stock solutions were prepared in dimethyl sulfoxide (DMSO, Sigma-Aldrich, St. Louis, MO, cat. D2650) at 800-fold the tested concentration and stored at -70 degrees C prior to their use. All drugs and investigational agents were tested over a range starting from a high concentration at or near the clinical Cmax and decreasing in half-log increments. If the clinical Cmax for an agent had not been determined, the highest concentration tested was 10 microM.
2.3 Cell Culture. All cells were maintained in an incubator at 37 degrees C and 5% CO2 with 95% humidity. The PDC lines were cultured according to standard operating procedures established by the NCI PDMR. All PDCs were thawed and cultured in Matrigel-coated flasks prepared with a working solution of 1X Ham's F-12 nutrient mix, without supplementation (Invitrogen, cat. 11765054), 100 U/mL penicillin-streptomycin (Invitrogen, cat. 15140122), and 2.5% Matrigel (Corning Inc., cat. 354248) for the first three passages. The 857933-349-R-J2-PDC line was cultured in 6C/Colon 1B media, which includes advanced DMEM/F-12 (Thermo Fisher Scientific, cat. 12634028), 10 mM HEPES (Thermo Fisher Scientific, cat. 15630080), 1X GlutaMAX supplement (Thermo Fisher Scientific, cat. 35050061), 0.1 mg/mL primocin (InvivoGen, cat. ant-pm-2), 10% defined fetal bovine serum, heat inactivated (HyClone Laboratories Inc., cat. SH30070.03HI), 50% L-WRN conditioned media (ATCC, cat. CRL-3276), 1.25 mM N-Acetyl-L-cysteine (Sigma-Aldrich, cat. A9165), 10 mM nicotinamide (Sigma-Aldrich, cat. N0636), 1X B-27 supplement (Thermo Fisher Scientific, cat. 17504044), 1X N-2 supplement (Thermo Fisher Scientific, cat. 17502048), 10 microM Y-27632 dihydrochloride (Tocris Bioscience, cat. 1254), and 50 ng/mL human EGF recombinant protein (Thermo Fisher Scientific, cat. PHG0311). The 485176-168-R4-J1-PDC line was cultured in Panc media, which includes all 6C/Colon 1B media components plus 100 ng/mL human FGF-10 (Thermo Fisher Scientific, cat. 100-26), 500 nM SB-431542 (Selleckchem, cat. S1067), and gastrin (Tocris, cat. 3006).
[…]
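Further: spheroids exposed to compounds for seven days before readout.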

COc1cc(C2c3cc4c(cc3C(OC3OC5COC(C)OC5C(O)C3O)C3COC(=O)C23)OCO4)cc(OC)c1O (stereo unspecified)
viability, T/C (compound 0.0316 µM): 96.9% and 98.6% and 100%
viability, T/C (compound 0.1 µM): 90.3% and 81.4% and 90%
viability, T/C (compound 0.316 µM): 110% and 86.1% and 104%
viability, T/C (compound 1 µM): 97.4% and 90% and 94.7%
viability, T/C (compound 3.16 µM): 95.6% and 68.2% and 90.1%
viability, T/C (compound 10 µM): 77.5% and 61.8% and 75.3%
IC50 (curve of compound): > 10 µM

COc1ccc([C@@H](O)c2cc(-c3ncnc4cc(N5CCOCC5)ccc34)c(F)cc2Cl)nn1
viability, T/C (compound 0.0316 µM): 91.1% and 96.7% and 94.1%
viability, T/C (compound 0.1 µM): 79.7% and 91.7% and 86.8%
viability, T/C (compound 0.316 µM): 101% and 91.6% and 95.4%
viability, T/C (compound 1 µM): 70.5% and 92% and 82.2%
viability, T/C (compound 3.16 µM): 69% and 67.2% and 61%
viability, T/C (compound 10 µM): 50.5% and 51% and 46%
IC50 (curve of compound): > 10 µM and 7.33 µM

COc1cccc2c1C(=O)c1c(O)c3c(c(O)c1C2=O)CC(O)(C(=O)CO)CC3OC1CC(N)C(O)C(C)O1 (stereo unspecified)
viability, T/C (compound 0.0316 µM): 108% and 100% and 89.9%
viability, T/C (compound 0.1 µM): 88.7% and 92.9% and 92.4%
viability, T/C (compound 0.316 µM): 90.9% and 94.7% and 84.1%
viability, T/C (compound 1 µM): 90.9% and 89.8% and 68.8%
viability, T/C (compound 3.16 µM): 74.8% and 60.3% and 59%
viability, T/C (compound 10 µM): 44.5% and 47.9% and 43.7%
IC50 (curve of compound): 8.21 µM and 8.19 µM and 5.94 µM

COc1ncnc(C2CC2)c1-c1ncc2cnn(Cc3ccc(-c4nc(C(F)(F)F)cn4C(C)C)cc3)c2n1
viability, T/C (compound 0.0316 µM): 86.9% and 97.4% and 103%
viability, T/C (compound 0.1 µM): 92.5% and 96.3% and 95.5%
viability, T/C (compound 0.316 µM): 93.3% and 102% and 94.6%
viability, T/C (compound 1 µM): 81.1% and 99.2% and 93%
viability, T/C (compound 3.16 µM): 71.3% and 107% and 93.5%
viability, T/C (compound 10 µM): 82% and 78% and 98%
IC50 (curve of compound): > 10 µM

Cc1[nH]c2ccc(F)cc2c1-c1nc2c3cccnc3c3ncccc3c2[nH]1
viability, T/C (compound 0.1 µM): 103% [middle of 12 runs]
viability, T/C (compound 0.316 µM): 102% [middle of 12 runs]
viability, T/C (compound 1 µM): 97% [middle of 12 runs]
viability, T/C (compound 3.16 µM): 87.2% [middle of 12 runs]
viability, T/C (compound 10 µM): 80.3% [middle of 12 runs]
IC50 (compound alone, run of 04/16/2024): > 10 µM
IC50 (compound alone, run of 04/22/2024): > 10 µM

Cc1[nH]c2ccccc2c1CCNCc1ccc(/C=C/C(=O)NO)cc1
viability, T/C (compound 0.000999 µM): 98.8% and 112% and 98%
viability, T/C (compound 0.00316 µM): 103% and 100% and 96.8%
viability, T/C (compound 0.00999 µM): 98.5% and 103% and 99.5%
viability, T/C (compound 0.0316 µM): 98.7% and 110% and 101%
viability, T/C (compound 0.0999 µM): 96.6% and 93.8% and 94.2%
viability, T/C (compound 0.316 µM): 89.6% and 68% and 71.7%
IC50 (curve of compound): > 0.316 µM

Cc1cccc(N(C)C(=O)C2C(O)CCN2c2nc(C)cc(C(F)(F)F)c2C#N)c1 (stereo unspecified)
viability, T/C (compound 0.0316 µM): 109% and 104% and 116%
viability, T/C (compound 0.1 µM): 90.7% and 90.4% and 93.4%
viability, T/C (compound 0.316 µM): 88.3% and 106% and 102%
viability, T/C (compound 1 µM): 101% and 94.8% and 87.2%
viability, T/C (compound 3.16 µM): 85.2% and 105% and 78.1%
viability, T/C (compound 10 µM): 87.4% and 90.2% and 74.4%
IC50 (curve of compound): > 10 µM

Cc1cnc(CNC(=O)c2c(=O)c3ccc(N4CCCN(C)CC4)nc3n3c2sc2ccccc23)cn1
viability, T/C (compound 0.0316 µM): 95.8% [middle of 12 runs]
viability, T/C (compound 0.1 µM): 91.6% [middle of 12 runs]
viability, T/C (compound 0.316 µM): 85.3% [middle of 12 runs]
viability, T/C (compound 1 µM): 76.2% [middle of 12 runs]
viability, T/C (compound 3.16 µM): 58% [middle of 12 runs]
viability, T/C (compound 10 µM): 44.7% [middle of 12 runs]

Cn1ncnc1[C@H]1c2n[nH]c(=O)c3cc(F)cc(c23)N[C@@H]1c1ccc(F)cc1
viability, T/C (compound 0.000999 µM): 93.3% and 88.5% and 90.8%
viability, T/C (compound 0.00316 µM): 80.2% and 90.7% and 85.4%
viability, T/C (compound 0.00999 µM): 88.3% and 95.7% and 109%
viability, T/C (compound 0.0316 µM): 108% and 98.7% and 87.9%
viability, T/C (compound 0.0999 µM): 99.3% and 102% and 82.7%
viability, T/C (compound 0.316 µM): 69.6% and 93.1% and 74.3%
IC50 (curve of compound): > 0.316 µM

Nc1ccn(C2OC(CO)C(O)C2(F)F)c(=O)n1 (stereo unspecified)
viability, T/C (compound 0.0316 µM): 81.8% and 90.5% and 89.3%
viability, T/C (compound 0.1 µM): 77.1% and 75.9% and 76.4%
viability, T/C (compound 0.316 µM): 72.5% and 81.7% and 66.8%
viability, T/C (compound 1 µM): 64.7% and 73.6% and 62.1%
viability, T/C (compound 3.16 µM): 51.1% and 69.9% and 47%
viability, T/C (compound 10 µM): 54.9% and 64.9% and 48.6%
IC50 (curve of compound): > 10 µM and 4.78 µM

O=C(NO)c1cnc(N2CCN(S(=O)(=O)c3ccc4ccccc4c3)CC2)nc1
viability, T/C (compound 0.0316 µM): 99.2% and 107% and 96.1%
viability, T/C (compound 0.1 µM): 97.4% and 90.7% and 87.3%
viability, T/C (compound 0.316 µM): 98% and 73.8% and 71.3%

O=C(c1cc(Cc2n[nH]c(=O)c3ccccc23)ccc1F)N1CCN(C(=O)C2CC2)CC1
viability, T/C (compound 0.0316 µM): 84.8% and 115% and 98.4%
viability, T/C (compound 0.1 µM): 94.2% and 98.6% and 103%
viability, T/C (compound 0.316 µM): 93.2% and 99.7% and 95.8%
viability, T/C (compound 1 µM): 99.4% and 97.6% and 92.7%
viability, T/C (compound 3.16 µM): 72.7% and 105% and 88.9%
viability, T/C (compound 10 µM): 88% and 93.6% and 77.6%
IC50 (curve of compound): > 10 µM

O=c1[nH]cc(F)c(=O)[nH]1
viability, T/C (compound 0.0316 µM): 95.9% and 105% and 110%
viability, T/C (compound 0.1 µM): 85.8% and 99.6% and 96.4%
viability, T/C (compound 0.316 µM): 86% and 106% and 100%
viability, T/C (compound 1 µM): 97.5% and 100% and 88.9%
viability, T/C (compound 3.16 µM): 80.1% and 63.3% and 102%
viability, T/C (compound 10 µM): 86.5% and 98.3% and 92%
IC50 (curve of compound): > 10 µM
